# In patent US20100143890A1 (priority 2008, published 2010):
# Tested on: AI virus proteins (3425P and 3427P, ProSci Inc.); H5 protein
# Type: binding, avian influenza virus
row,SMILES,binding properties compared with commercially available antibody
1,CC(=O)NC1C(O)CC(OCC2OC(OC3C(CO)OC(O)C(O)C3O)C(O)C(O)C2O)(C(=O)O)OC1C(O)C(O)CO (centres unmarked) [6′-sialic lactose],not active
2,CC(=O)N[C@H]1[C@H]([C@H](O)[C@H](O)CO)O[C@@](O[C@H]2[C@@H](O)[C@@H](CO)O[C@@H](O[C@H]3[C@H](O)[C@@H](O)C(O)O[C@@H]3CO)[C@@H]2O)(C(=O)O)C[C@@H]1O (some centres unmarked) [3-silaiic-lactose],not active
